# Tested on: methane production in rumen fluid
# Assay: Rumen in vitro (RIV) assay, methane production from rumen fluid incubations
# Type: cell-based, cattle
# Conditions: for inhibition at 10 µM / inhibition at 2 µM / inhibition at 50 µM: Bos taurus, read-out: RIV % methane reduction +/− SD
# Method: The compounds of the present invention were initially screened for activity using an in vitro fully automated incubation system for the measurement of total gas production and gas composition (methane and hydrogen). The system used is described in detail in the paper by Muetzel et al. (2014; Animal Feed Science and Technology 196, 1-11). The system in this specification is referred to as the rumen in vitro system or RIV. The RIV system provides a relatively simple tool for determining the rate and production of methane and also whether the rate and production of methane is inhibited or reduced by a particular compound or feed. Rumen in vitro assays use rumen fluid from donor animals (typically either sheep or cattle) which is typically combined with a buffer and then incubated in sealed fermentation vessels at 39° C. for either 24 or 48 h. These assays systems have been well-characterised and used by the scientific community over the last two decades (Rymer et al. 2005). The system that has been used here to characterise the effects of inhibitors on methane production and gas production, and the formation of H2, was described by Muetzel et al. (2014). Rumen in vitro assay systems reflect what can occur in the rumen in vivo, but only short-term, due to their short incubation times (typically not exceeding 48 h) which is limited by its buffering capacity and the fact that it is a closed system. Stock solutions of inhibitors were re-suspended in dimethylformamide (DMF) at concentrations 1000-fold higher than the highest used for the assays. Any further dilutions were also prepared using DMF. The total amount of inhibitor solution added to the rumen fluid-buffer mixture (60 mL) was 60 μl. Incubations used 60 ml of medium containing 12 ml of filtered rumen fluid and 48 ml of buffer in serum bottles for 24-48 h, essentially as described by Muetzel et al. (2014). Two fistulated cattle were used as donor animals for rumen fluid and treatments were incubated in duplicate bottles. Sets of duplicate incubation vials that contained ryegrass (with rumen fluid-buffer mixture), and ryegrass with 30 μM bromoethanesulfonate (BES) were also incubated as negative and positive controls, respectively. One experiment consists of 2 replicates of an inhibitor at any one concentration run at the same time, and a run can contain up to 32 bottle, including positive (30 µM BES) and negative (no inhibitor added) controls. Compound 1, for example, was tested using the 60 mL rumen in vitro assay system at 50 μM, 10 μM, and 2 μM final concentrations and compared to a positive control with 30 µM BES.
SMILES,inhibition at 10 µM (10 μM),inhibition at 2 µM (2 μM),inhibition at 50 µM (50 μM),also measured
"O=C(O)CCC(=O)N1N=C(c2ccc(-c3ccc4c(c3)OC(F)(F)O4)cc2)CC1c1ccc2nccnc2c1 (centres unmarked) [Compound 104, 4-(3-(4-(2,2-Difluorobenzo[d][1,3]dioxol-5-yl)phenyl)-5-(quinoxalin-6-yl)-4,5-dihydro-1H-pyrazol-1-yl)-4-oxobutanoic acid]",41.9 ± 8.9%,,,
"CCCCOc1ccc(-c2ccc(C3=NN(C(=O)CCC(=O)O)C(c4ccc5nccnc5c4)C3)cc2)cc1 (centres unmarked) [Compound 80, 4-(3-(4′-Butoxy-[1,1′-biphenyl]-4-yl)-5-(quinoxalin-6-yl)-4,5-dihydro-1H-pyrazol-1-yl)-4-oxobutanoic acid]",89.4 ± 2.5%,21.9 ± 4.3%,,
"NC(=O)CCC(=O)N1N=C(c2ccc(Cl)cc2)CC1c1ccc2nccnc2c1 (centres unmarked) [Compound 113, 4-(3-(4-Chlorophenyl)-5-(quinoxalin-6-yl)-4,5-dihydro-1H-pyrazol-1-yl)-4-oxobutanamide]",,,15.6 ± 0.4%,
"O=C(CCC(=O)N1N=C(c2ccc(Cl)cc2)CC1c1ccc2nccnc2c1)NS(=O)(=O)c1ccccc1 (centres unmarked) [Compound 70, 4-(3-(4-Chlorophenyl)-5-(quinoxalin-6-yl)-4,5-dihydro-1H-pyrazol-1-yl)-4-oxo-N-(phenylsulfonyl) butanamide]",88.9 ± 1.5%,27.1 ± 13.1%,,
"COc1ccc(C2CC(c3ccc(Cl)cc3)=NN2C(=O)CCC(=O)O)c(OC)c1 (centres unmarked) [Compound 42, 4-(3-(4-Chlorophenyl)-5-(2,4-dimethoxyphenyl)-4,5-dihydro-1H-pyrazol-1-yl)-4-oxobutanoic acid]",10.5 ± 3.5%,,80 ± 4.7%,
"CCOc1ccc(-c2ccc(C3=NN(C(=O)CCC(=O)O)C(c4ccc5nccnc5c4)C3)cc2)cc1 (centres unmarked) [Compound 79, 4-(3-(4′-Ethoxy-[1,1′-biphenyl]-4-yl)-5-(quinoxalin-6-yl)-4,5-dihydro-1H-pyrazol-1-yl)-4-oxobutanoic acid]",81.5 ± 0.1%,25.2 ± 2.5%,,
"O=C(O)CCC(=O)N1N=C(c2cccc(-c3ccc(OC(F)(F)F)cc3)c2)CC1c1ccc2nccnc2c1 (centres unmarked) [Compound 14, 4-Oxo-4-(5-(quinoxalin-6-yl)-3-(4′-(trifluoromethoxy)-[1,1′-biphenyl]-3-yl)-4,5-dihydro-1H-pyrazol-1-yl)butanoic acid]",72.4 ± 0.8%,< 5%,95.4%,
"O=C(O)CCC(=O)N1N=C(c2ccc(-c3ccc(Cl)cc3Cl)cc2)CC1c1ccc2nccnc2c1 (centres unmarked) [Compound 26, 4-(3-(2′,4′-Dichloro-[1,1′-biphenyl]-4-yl)-5-(quinoxalin-6-yl)-4,5-dihydro-1H-pyrazol-1-yl)-4-oxobutanoic acid]",65.8 ± 3.7%,,96 ± 1.1%,
"O=C(O)CCC(=O)N1N=C(c2ccc(Cl)cc2)CC1c1cnc2ccccc2n1 (centres unmarked) [Compound 32, 4-(3-(4-Chlorophenyl)-5-(quinoxalin-2-yl)-4,5-dihydro-1H-pyrazol-1-yl)-4-oxobutanoic acid]",< 5%,,81 ± 2%,
"O=C(O)CCC(=O)N1N=C(c2ccc3nccnc3c2)CC1c1ccc(Cl)cc1 (centres unmarked) [Compound 77, 4-(5-(4-Chlorophenyl)-3-(quinoxalin-6-yl)-4,5-dihydro-1H-pyrazol-1-yl)-4-oxobutanoic acid]",,,77 ± 0.4%,
CSc1ccc(C2=NN(C(=O)CCC(=O)O)C(c3ccc4nccnc4c3)C2)cc1 (centres unmarked) [Compound 62],,,31.8%,
"CC(C)Oc1ccc(-c2ccc(C3=NN(C(=O)CCC(=O)NS(C)(=O)=O)C(c4ccc5nccnc5c4)C3)cc2)cc1 (centres unmarked) [Compound 117, 4-(3-(4′-Isopropoxy-[1,1′-biphenyl]-4-yl)-5-(quinoxalin-6-yl)-4,5-dihydro-1H-pyrazol-1-yl)-N-(methylsulfonyl)-4-oxobutanamide]",72.5 ± 4%,9.1 ± 2.4%,,
"O=C(O)CCC(=O)N1N=C(c2ccc(-c3ccc(OC4CC4)cc3)cc2)CC1c1ccc2nccnc2c1 (centres unmarked) [Compound 84, 4-(3-(4′-Cyclopropoxy-[1,1′-biphenyl]-4-yl)-5-(quinoxalin-6-yl)-4,5-dihydro-1H-pyrazol-1-yl)-4-oxobutanoic acid]",75.1 ± 4.2%,9.8 ± 1%,,
"O=C(O)CCC(=O)N1N=C(c2ccc(-c3ccc(OC(F)(F)F)cc3)cc2)CC1c1ccc2nccnc2c1 (centres unmarked) [Compound 22, 4-Oxo-4-(5-(quinoxalin-6-yl)-3-(4′-(trifluoromethoxy)-[1,1′-biphenyl]-4-yl)-4,5-dihydro-1H-pyrazol-1-yl)butanoic acid]",85.1 ± 0.8%,23.8 ± 1.1%,94.7 ± 0.8%,
"O=C(O)CCCC(=O)N1N=C(c2ccc(Cl)cc2)CC1c1ccc2nccnc2c1 (centres unmarked) [Compound 50, 5-(3-(4-Chlorophenyl)-5-(quinoxalin-6-yl)-4,5-dihydro-1H-pyrazol-1-yl)-5-oxopentanoic acid]",,,66.4 ± 2.9%,
"O=C(O)CCC(=O)N1N=C(c2ccc(-c3ccc(C(F)(F)F)cc3)cc2)CC1c1ccc2nccnc2c1 (centres unmarked) [Compound 20, 4-Oxo-4-(5-(quinoxalin-6-yl)-3-(4′-(trifluoromethyl)-[1,1′-biphenyl]-4-yl)-4,5-dihydro-1H-pyrazol-1-yl)butanoic acid]",37.2 ± 5.9%,,,
"O=C(O)CCCN1N=C(c2ccc(Cl)cc2)CC1c1ccc2nccnc2c1 (centres unmarked) [Compound 53, 4-(3-(4-Chlorophenyl)-5-(quinoxalin-6-yl)-4,5-dihydro-1H-pyrazol-1-yl)butanoic acid]",19.4 ± 1.9%,,82.1 ± 1.2%,
"O=C(O)CCC(=O)N1N=C(c2ccc(Cl)cc2)CC1c1ccc2nonc2c1 (centres unmarked) [Compound 35, 4-(5-(Benzo[c][1,2,5]oxadiazol-5-yl)-3-(4-chlorophenyl)-4,5-dihydro-1H-pyrazol-1-yl)-4-oxobutanoic acid]",43.6 ± 6.6%,,91.3 ± 2.1%,
"O=C1NC(=O)C(CC(=O)N2N=C(c3ccc(Cl)cc3)CC2c2ccc3nccnc3c2)S1 (centres unmarked) [Compound 63, 5-(2-(3-(4-Chlorophenyl)-5-(quinoxalin-6-yl)-4,5-dihydro-1H-pyrazol-1-yl)-2-oxoethyl)thiazolidine-2,4-dione]",,,43.6 ± 2.9%,
"COc1ccc(-c2cccc(C3=NN(C(=O)CCC(=O)O)C(c4ccc5nccnc5c4)C3)c2)cc1 (centres unmarked) [Compound 99, 4-(3-(4′-Methoxy-[1,1′-biphenyl]-3-yl)-5-(quinoxalin-6-yl)-4,5-dihydro-1H-pyrazol-1-yl)-4-oxobutanoic acid]",< 5%,,71.8%,
"CS(=O)(=O)NC(=O)CCC(=O)N1N=C(c2ccc(OC(F)(F)F)cc2)CC1c1ccc2nccnc2c1 (centres unmarked) [Compound 116, N-(Methylsulfonyl)-4-oxo-4-(5-(quinoxalin-6-yl)-3-(4-(trifluoromethoxy)phenyl)-4,5-dihydro-1H-pyrazol-1-yl) butanamide]",,,,RIV % methane reduction +/− SD (2 μM): <5%; RIV % methane reduction +/− SD (10 μM): 72.4 ± 10.6%; RIV % methane reduction +/− SD (50 μM): 93.9 ± 4.7%
"Cc1ccc(S(=O)(=O)NC(=O)CCC(=O)N2N=C(c3ccc(Cl)cc3)CC2c2ccc3nccnc3c2)cc1 (centres unmarked) [Compound 125, 4-(3-(4-Chlorophenyl)-5-(quinoxalin-6-yl)-4,5-dihydro-1H-pyrazol-1-yl)-4-oxo-N-tosylbutanamide]",21.8 ± 5.7%,,,
"O=C(O)CCC(=O)N1N=C(c2ccc(-c3cc(F)cc(F)c3)cc2)CC1c1ccc2nccnc2c1 (centres unmarked) [Compound 66, 4-(3-(3′,5′-Difluoro-[1,1′-biphenyl]-4-yl)-5-(quinoxalin-6-yl)-4,5-dihydro-1H-pyrazol-1-yl)-4-oxobutanoic acid]",85.4%,17.5%,,
"O=C(O)CCC(=O)N1N=C(c2ccc(-c3cccc(Cl)c3)cc2)CC1c1ccc2nccnc2c1 (centres unmarked) [Compound 18, 4-(3-(3′-Chloro-[1,1′-biphenyl]-4-yl)-5-(quinoxalin-6-yl)-4,5-dihydro-1H-pyrazol-1-yl)-4-oxobutanoic acid]",83.6 ± 1.5%,< 5%,94.1 ± 0.1%,
"O=C(O)CCC(=O)N1N=C(c2ccc(C3CCCCC3)cc2)CC1c1ccc2nccnc2c1 (centres unmarked) [Compound 4, 4-(3-(4-Cyclohexylphenyl)-5-(quinoxalin-6-yl)-4,5-dihydro-1H-pyrazol-1-yl)-4-oxobutanoic acid]",< 5%,,79.5 ± 4.4%,
"COc1cccc(C2CC(c3ccc(Cl)cc3)=NN2C(=O)CCC(=O)O)c1 (centres unmarked) [Compound 41, 4-(3-(4-Chlorophenyl)-5-(3-methoxyphenyl)-4,5-dihydro-1H-pyrazol-1-yl)-4-oxobutanoic acid]",,,13.4 ± 3.2%,

# From patent US20260053171A1, “METHANOGEN INHIBITORS” (AGRIZERONZ LIMITED PARTNERSHIP, priority 2022, published 2026)
